Measured values: US10266497B2 (ABIDE THERAPEUTICS, INC., priority 2017, dated 2019)

How the values were obtained:
MAGL [1] = molecular target: T1, MAGL (Homo sapiens, UniProt Q99685); test: In vitro competitive activity-based protein profiling, MAGL, human; settings: for inhibition at 1 µM: read-out: MAGL % inh. 1 μM (human)
T1 sequence (Q99685 1-303): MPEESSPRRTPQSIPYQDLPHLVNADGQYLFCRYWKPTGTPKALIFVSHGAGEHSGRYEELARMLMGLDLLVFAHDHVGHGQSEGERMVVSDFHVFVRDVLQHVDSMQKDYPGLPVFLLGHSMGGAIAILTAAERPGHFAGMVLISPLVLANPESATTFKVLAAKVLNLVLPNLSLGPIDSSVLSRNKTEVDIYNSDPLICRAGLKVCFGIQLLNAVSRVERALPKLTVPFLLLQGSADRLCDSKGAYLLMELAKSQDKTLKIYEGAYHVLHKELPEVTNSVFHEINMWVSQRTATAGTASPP

MAGL [2] = molecular target: T2, MAGL (Mus musculus, UniProt O35678); test: In vitro competitive activity-based protein profiling, MAGL, mouse; settings: read-out: MAGL % inh. 1 μM (mouse)
T2 sequence (O35678 1-303): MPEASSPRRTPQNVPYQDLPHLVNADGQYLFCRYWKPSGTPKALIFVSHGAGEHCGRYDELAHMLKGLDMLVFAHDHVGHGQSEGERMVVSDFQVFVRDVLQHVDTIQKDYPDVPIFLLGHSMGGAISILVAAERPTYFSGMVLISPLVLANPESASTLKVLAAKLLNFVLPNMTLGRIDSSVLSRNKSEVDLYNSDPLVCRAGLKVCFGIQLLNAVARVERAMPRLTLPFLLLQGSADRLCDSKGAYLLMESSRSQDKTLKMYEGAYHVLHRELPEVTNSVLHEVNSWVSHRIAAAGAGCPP

FAAH [3] = molecular target: T3, FAAH (Homo sapiens, UniProt O00519); test: In vitro competitive activity-based protein profiling, FAAH, human; settings: for inhibition at 1 µM: read-out: FAAH % inh. 1 μM (human)
T3 sequence (O00519 1-579): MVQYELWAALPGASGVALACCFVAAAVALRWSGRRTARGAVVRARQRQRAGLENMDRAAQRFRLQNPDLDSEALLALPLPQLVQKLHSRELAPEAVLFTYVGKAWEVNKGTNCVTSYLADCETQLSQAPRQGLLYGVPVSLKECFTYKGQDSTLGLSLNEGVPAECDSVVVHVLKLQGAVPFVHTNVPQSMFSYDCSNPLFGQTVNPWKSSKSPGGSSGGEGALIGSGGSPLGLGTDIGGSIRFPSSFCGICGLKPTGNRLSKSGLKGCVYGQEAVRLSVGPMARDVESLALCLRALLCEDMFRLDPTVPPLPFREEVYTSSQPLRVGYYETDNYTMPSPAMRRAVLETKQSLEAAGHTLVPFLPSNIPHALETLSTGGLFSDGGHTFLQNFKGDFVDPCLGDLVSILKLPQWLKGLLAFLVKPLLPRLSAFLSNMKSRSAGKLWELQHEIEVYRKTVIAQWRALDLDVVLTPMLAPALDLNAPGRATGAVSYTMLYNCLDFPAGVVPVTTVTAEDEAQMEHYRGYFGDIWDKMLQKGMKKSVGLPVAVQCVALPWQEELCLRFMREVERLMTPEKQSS

FAAH [4] = molecular target: T4, FAAH (Mus musculus, UniProt O08914); test: In vitro competitive activity-based protein profiling, FAAH, mouse; settings: read-out: FAAH % inh. 1 μM (mouse)
T4 sequence (O08914 1-579): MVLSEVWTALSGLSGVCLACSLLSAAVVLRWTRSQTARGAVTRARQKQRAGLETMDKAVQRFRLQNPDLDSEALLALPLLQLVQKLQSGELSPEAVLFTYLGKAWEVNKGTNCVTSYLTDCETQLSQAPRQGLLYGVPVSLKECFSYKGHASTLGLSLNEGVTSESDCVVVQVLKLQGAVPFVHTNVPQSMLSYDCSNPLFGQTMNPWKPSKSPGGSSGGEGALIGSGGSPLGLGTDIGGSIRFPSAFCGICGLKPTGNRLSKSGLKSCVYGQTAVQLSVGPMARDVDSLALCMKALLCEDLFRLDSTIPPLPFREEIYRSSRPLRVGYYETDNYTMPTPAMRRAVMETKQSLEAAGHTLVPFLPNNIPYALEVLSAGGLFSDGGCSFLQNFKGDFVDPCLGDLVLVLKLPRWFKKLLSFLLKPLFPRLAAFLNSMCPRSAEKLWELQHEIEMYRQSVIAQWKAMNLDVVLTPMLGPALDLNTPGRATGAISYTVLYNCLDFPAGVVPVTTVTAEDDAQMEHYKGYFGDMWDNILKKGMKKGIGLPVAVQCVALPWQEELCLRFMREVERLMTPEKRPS

MAGL [5] = molecular target: T2, MAGL; test: Mouse brain proteomes from inhibitor treated mice (oral gavage, sacrificed 4 h after administration); format: in vivo; parameters: mouse brain membrane fraction for mouse assays; from tissue; host or cells: mouse brain (membrane fraction in vitro; brain proteomes of treated C57Bl/6J mice in vivo); settings: 5 mg/kg oral gavage, brain proteome 4 h after administration, read-out: MAGL % inh. 5 mg/kg (mouse)
FAAH [6] = molecular target: T4, FAAH; test: Mouse brain proteomes from inhibitor treated mice (oral gavage, sacrificed 4 h after administration), FAAH; format: in vivo; parameters: mouse brain membrane fraction for mouse assays; from tissue; host or cells: mouse brain (membrane fraction in vitro; brain proteomes of treated C57Bl/6J mice in vivo); settings: 5 mg/kg oral gavage, brain proteome 4 h after administration, read-out: FAAH % inh. 5 mg/kg (mouse)

Row | Compound | inhibition at 1 µM (MAGL [1]) [%] | inhibition at 1 µM (MAGL [2]) [%] | IC50 (FAAH [3]) [µM] | inhibition at 1 µM (FAAH [3]) [%] | inhibition at 1 µM (FAAH [4]) [%] | inhibition at 5 mg/kg (MAGL [5]) [%] | inhibition at 5 mg/kg (FAAH [6]) [%] | IC50 (MAGL [1]) [µM]
1 | O=C(O)c1nn(C(=O)N2CCC3(CCN(Cc4cc(Cl)ccc4C(F)(F)F)C3)CC2)cc1Cl [Example 133, 4-chloro-1-(2-(5-chloro-2-(trifluoromethyl)benzyl)-2,8-diazaspiro[4.5]decane-8-carbonyl)-1H-pyrazole-3-carboxylic acid] | > 75 | > 75 | 0.1 to 1 | > 75 | > 75 | 0 to 25 | 0 to 25 | –
2 | O=C(O)c1ccn(C(=O)N2CCN(Cc3ccc(Cl)cc3N3C4CCC3COC4)CC2)n1 [Example 105, 1-(4-(2-(3-oxa-8-azabicyclo[3.2.1]octan-8-yl)-4-chlorobenzyl)piper-azine-1-carbonyl)-1H-pyrazole-3-carboxylic acid] | > 75 | > 75 | – | 0 to 25 | 0 to 25 | 0 to 25 | 0 to 25 | –
3 | O=C(O)c1ccn(C(=O)N2C[C@H]3C[C@H](OCc4cccc(C(F)(F)F)c4)C[C@H]3C2)n1 [Example 157, 1-(trans-5-((3-(trifluoromethyl)benzyl)oxy)octa-hydrocyclopenta[c]pyrrole-2-carbonyl)-1H-pyrazole-3-carboxylic acid] | > 75 | > 75 | 0.1 to 1 | > 75 | > 75 | 0 to 25 | 0 to 25 | –
4 | O=C(O)c1ccn(C(=O)N2CCN(Cc3cc4cc(Cl)ccc4s3)CC2)n1 [Example 187, 1-(4-((5-chlorobenzo[b]thio-phen-2-yl)methyl)piperazine-1-carbonyl)-1H-pyrazole-3-carboxylic acid] | > 75 | > 75 | – | 25 to 50 | 0 to 25 | 0 to 25 | 0 to 25 | –
5 | CC(C)(O)C1CCN(c2cc(C(F)(F)F)ccc2CN2CCN(C(=O)n3ccc(C(=O)O)n3)CC2)CC1 [Example 109, 1-(4-(2-(4-(2-hydroxypropan-2-yl)piperidin-1-yl)-4-(trifluoromethyl)benzyl)piperazine-1-carbonyl)-1H-pyrazole-3-carboxylic acid] | > 75 | > 75 | – | 0 to 25 | 0 to 25 | 0 to 25 | 0 to 25 | –
6 | O=C(O)c1ccn(C(=O)N2CCN(Cc3ccc(C(F)(F)F)cc3N3C4CCC3COC4)CC2)n1 [Example 118, 1-(4-(2-(3-oxa-8-azabicyclo[3.2.1]octan-8-yl)-4-(trifluoromethyl)benzyl)piperazine-1-carbonyl)-1H-pyrazole-3-carboxylic acid] | > 75 | > 75 | – | 0 to 25 | 0 to 25 | 0 to 25 | 0 to 25 | –
7 | O=C(O)c1ccn(C(=O)N2CCN(Cc3ccc(C(F)(F)F)cc3N3CCCC3)CC2)n1 [Example 83, 1-(4-(2-(pyrrolidin-1-yl)-4-(trifluoromethyl)benzyl)piperazine-1-carbonyl)-1H-pyrazole-3-carboxylic acid] | > 75 | > 75 | 1 to 10 | 0 to 25 | 0 to 25 | 0 to 25 | 0 to 25 | –
8 | O=C(O)c1ccn(C(=O)N2CCN(Cc3cccc(Oc4cc(C(F)(F)F)ccn4)c3)CC2)n1 [Example 57, 1-(4-(3-((4-(trifluoromethyl)pyridin-2-yl)oxy)benzyl)piper-azine-1-carbonyl)-1H-pyrazole-3-carboxylic acid] | > 75 | > 75 | 0.1 to 1 | 50 to 75 | 50 to 75 | 0 to 25 | 0 to 25 | –
9 | O=C(O)c1ccn(C(=O)N2CC3CN(Cc4cccc(Oc5ccc(Cl)cc5)c4)CC3C2)n1 (stereo not shown) [Example 116, 1-(5-(3-(4-chlorophenoxy)benzyl)octahydro-pyrrolo[3,4-c]pyrrole-2-carbonyl)-1H-pyrazole-3-carboxylic acid] | > 75 | > 75 | 0.1 to 1 | > 75 | 0 to 25 | 0 to 25 | 0 to 25 | 0.1 to 1
10 | O=C(O)c1ccn(C(=O)N2C[C@H]3C[C@H](OCc4cccc(Oc5ccc(Cl)cc5)c4)C[C@H]3C2)n1 [Example 158, 1-(trans-5-((3-(4-chlorophenoxy)benzyl)oxy)octa-hydrocyclopenta[c]pyrrole-2-carbonyl)-1H-pyrazole-3-carboxylic acid] | > 75 | > 75 | – | > 75 | > 75 | 0 to 25 | 0 to 25 | –
11 | O=C(O)c1ccn(C(=O)N2CCN(Cc3ccc(C(F)(F)F)cc3Cl)CC2)n1 [Example 91, 1-(4-(2-chloro-4-(trifluoromethyl)benzyl)piperazine-1-carbonyl)-1H-pyrazole-3-carboxylic acid] | > 75 | > 75 | – | 0 to 25 | 0 to 25 | 0 to 25 | 0 to 25 | –
12 | O=C(O)c1ccn(C(=O)N2CCC3(CCCN3Cc3cc(Cl)cc(C(F)(F)F)c3)CC2)n1 [Example 86, 1-(1-(3-chloro-5-(trifluoromethyl)benzyl)-1,8-diazaspiro[4.5]decane-8-carbonyl)-1H-pyrazole-3-carboxylic acid] | > 75 | > 75 | – | 0 to 25 | 0 to 25 | 0 to 25 | 0 to 25 | –
13 | O=C(O)c1ccn(C(=O)N2CCN(Cc3ccc(C(F)(F)F)cc3N3CC[C@H](F)C3)CC2)n1 [Example 92, (S)-1-(4-(2-(3-fluoropyrrolidin-1-yl)-4-(trifluoromethyl)benzyl)-piperazine-1-carbonyl)-1H-pyrazole-3-carboxylic acid] | > 75 | > 75 | 1 to 10 | 0 to 25 | 0 to 25 | 0 to 25 | 0 to 25 | –
